Source: PubChem BioAssay AID248 (DTP/NCI, 2004)
“And” between values parts separate entries of the source, which are not always exact repeats. Equal values may be shown once. Toxic doses and inconclusive results are not listed.

System: L1210 leukemia ip in BDF1 mice, survival T/C
Test: NCI In Vivo Anticancer Drug Screen. Data for tumor model L1210 Leukemia (intraperitoneal) in B6D2F1 (BDF1) mice
Conditions: endpoint: mean survival time, higher = longer survival
Outline: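 Value reflects the ratio of survival in compound-treated mice to survival in vehicle-treated controls, with both groups carrying the same transplanted tumor.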

[1] = dose: 100.0 mg/kg/injection, schedule: Q01DX009 (ip), vehicle: saline
[2] = dose: 100.0 mg/kg/injection, schedule: Q04DX003 (ip), vehicle: saline
[3] = dose: 200.0 mg/kg/injection, schedule: Q01DX009 (ip), vehicle: saline
[4] = dose: 400.0 mg/kg/injection, schedule: Q01DX009 (ip), vehicle: saline
[5] = dose: 100.0 mg/kg/injection, schedule: Q04DX002 (ip), vehicle: Klucel (hydroxypropylcellulose) (HPC)
[6] = dose: 200.0 mg/kg/injection, schedule: Q04DX002 (ip), vehicle: Klucel (hydroxypropylcellulose) (HPC)
[7] = dose: 100.0 mg/kg/injection, schedule: Q01DX009 (ip), vehicle: Klucel (hydroxypropylcellulose) (HPC)
[8] = dose: 200.0 mg/kg/injection, schedule: Q01DX009 (ip), vehicle: Klucel (hydroxypropylcellulose) (HPC)
[9] = dose: 400.0 mg/kg/injection, schedule: Q01DX009 (ip), vehicle: Klucel (hydroxypropylcellulose) (HPC)
[10] = dose: 100.0 mg/kg/injection, schedule: Q04DX003 (ip), vehicle: saline with Tween-80
[11] = dose: 200.0 mg/kg/injection, schedule: Q04DX003 (ip), vehicle: saline with Tween-80
[12] = dose: 400.0 mg/kg/injection, schedule: Q04DX003 (ip), vehicle: saline with Tween-80
[13] = dose: 100.0 mg/kg/injection, schedule: Q04DX002 (ip), vehicle: saline with Tween-80
[14] = dose: 200.0 mg/kg/injection, schedule: Q04DX002 (ip), vehicle: saline with Tween-80

With CC1(C)CC(=O)C(C23C=CC2=C(CO)C(=O)OC3)C1 (stereo not given) the T/C (dose: 5.0 mg/kg/injection, schedule: Q01DX001 (ip), vehicle: saline) was 96 % of control, the T/C (dose: 10.0 mg/kg/injection, schedule: Q01DX001 (ip), vehicle: saline) was 96 % of control and the T/C (dose: 20.0 mg/kg/injection, schedule: Q01DX001 (ip), vehicle: saline) was 98 % of control. For the same molecule, the T/C (dose: 40.0 mg/kg/injection, schedule: Q01DX001 (ip), vehicle: saline) was 110 % of control.

In the case of NC(N)=NCCS(=O)(=O)Nc1ccc(Nc2c3ccccc3nc3cc([N+](=O)[O-])ccc23)cc1, the T/C (dose: 0.75 mg/kg/injection, schedule: Q01DX009 (ip), vehicle: water) is reported as 121 % of control, the T/C (dose: 6.0 mg/kg/injection, schedule: Q01DX009 (ip), vehicle: water) is reported as 163 % of control and the T/C (dose: 25.0 mg/kg/injection, schedule: Q04DX003 (ip), vehicle: water) is reported as 157 % of control. The T/C (dose: 50.0 mg/kg/injection, schedule: Q04DX003 (ip), vehicle: water) was 175 % of control.

In the case of CNC(=N)c1ccc(NC(=N)c2ccc(NC(=O)Nc3ccc(C(=N)Nc4ccc(C(=N)NC)cc4)cc3)cc2)cc1, the T/C (dose: 0.25 mg/kg/injection, schedule: Q01DX Z (ip), vehicle: water) is reported as 98 % of control, the T/C (dose: 0.5 mg/kg/injection, schedule: Q01DX Z (ip), vehicle: water) is reported as 96 % of control and the T/C (dose: 1.0 mg/kg/injection, schedule: Q01DX Z (ip), vehicle: water) is reported as 96 % of control. For the same molecule, the T/C (dose: 1.87 mg/kg/injection, schedule: Q01DX Z (ip), vehicle: water) was 92 % of control, the T/C (dose: 2.0 mg/kg/injection, schedule: Q01DX Z (ip), vehicle: water) was 104 % of control and the T/C (dose: 3.75 mg/kg/injection, schedule: Q01DX Z (ip), vehicle: water) was 156 % of control. For the same molecule, the T/C (dose: 7.0 mg/kg/injection, schedule: Q01DX Z (ip), vehicle: carboxymethylcellulose (CMC)) was 165 % of control, the T/C (dose: 7.5 mg/kg/injection, schedule: Q01DX Z (ip), vehicle: water) was 246 % of control and the T/C (dose: 10.0 mg/kg/injection, schedule: Q01DX Z (ip), vehicle: water) was 209 % of control. The T/C (dose: 14.0 mg/kg/injection, schedule: Q01DX Z (ip), vehicle: carboxymethylcellulose (CMC)) was 160 % of control, the T/C (dose: 25.0 mg/kg/injection, schedule: Q01DX Z (oral), vehicle: water) was 100 % of control and the T/C (dose: 50.0 mg/kg/injection, schedule: Q01DX Z (oral), vehicle: water) was 98 % of control. The T/C (dose: 100.0 mg/kg/injection, schedule: Q01DX Z (oral), vehicle: water) was 104 % of control and the T/C (dose: 200.0 mg/kg/injection, schedule: Q01DX Z (oral), vehicle: water) was 100 % of control.

For CCN(CC)CCOC(=O)c1ccc(N)cc1, the T/C (dose: 12.5 mg/kg/injection, schedule: Q01DX009 (ip), vehicle: saline) was 97 % of control, the T/C (dose: 25.0 mg/kg/injection, schedule: Q01DX009 (ip), vehicle: saline) was 103 % of control and the T/C (dose: 25.0 mg/kg/injection, schedule: Q04DX003 (ip), vehicle: saline) was 101 % of control. The T/C (dose: 50.0 mg/kg/injection, schedule: Q01DX009 (ip), vehicle: saline) was 100 % of control and 95 % of control, the T/C (dose: 50.0 mg/kg/injection, schedule: Q04DX003 (ip), vehicle: saline) was 111 % of control and the T/C [1] was 100 % of control and 101 % of control. The T/C [2] was 101 % of control.

With Cc1ccc(NC(=O)Oc2cc(=O)oc3ccccc23)c([N+](=O)[O-])c1 the T/C (dose: 100.0 mg/kg/injection, schedule: Q04DX003 (ip), vehicle: Klucel (hydroxypropylcellulose) (HPC)) was 89 % of control, the T/C (dose: 200.0 mg/kg/injection, schedule: Q04DX003 (ip), vehicle: Klucel (hydroxypropylcellulose) (HPC)) was 94 % of control and the T/C (dose: 400.0 mg/kg/injection, schedule: Q04DX003 (ip), vehicle: Klucel (hydroxypropylcellulose) (HPC)) was 96 % of control.

For COc1ccc(/C=C2/COC/C(=C\c3ccc(OC)cc3)C2=O)cc1, the T/C [1] was 91 % of control, the T/C [3] was 91 % of control and the T/C [4] was 91 % of control.

Nc1ccc2c(c1)C(=O)c1c(F)ccc(F)c1-2 was tested, and the T/C (dose: 50.0 mg/kg/injection, schedule: Q01DX001 (ip), vehicle: carboxymethylcellulose (CMC)) was 98 % of control, the T/C (dose: 100.0 mg/kg/injection, schedule: Q01DX001 (ip), vehicle: carboxymethylcellulose (CMC)) was 96 % of control and the T/C (dose: 200.0 mg/kg/injection, schedule: Q01DX001 (ip), vehicle: carboxymethylcellulose (CMC)) was 104 % of control. For the same molecule, the T/C (dose: 400.0 mg/kg/injection, schedule: Q01DX001 (ip), vehicle: carboxymethylcellulose (CMC)) was 115 % of control.

With CC(=O)CC(=O)Nc1cccc(C)n1 the T/C (dose: 100.0 mg/kg/injection, schedule: Q01DX001 (ip), vehicle: saline) was 100 % of control, the T/C [5] was 94 % of control and the T/C (dose: 200.0 mg/kg/injection, schedule: Q01DX001 (ip), vehicle: saline) was 110 % of control. The T/C [6] was 97 % of control.

With CN(Cc1ccccc1Cl)C(=O)Nc1cccc(Cl)c1 the T/C [7] was 97 % of control, the T/C [8] was 103 % of control and the T/C [9] was 114 % of control.

With O=C1CCCCCCCCC(=O)CCCCCCCC1 the T/C [10] was 89 % of control, the T/C [11] was 86 % of control and the T/C [12] was 100 % of control.

COC(=O)C(C)C1(O)CCCCC1 (stereo not given) was tested, and the T/C [1] was 96 % of control, the T/C [3] was 93 % of control and the T/C [4] was 91 % of control.

With Cc1noc(C)c1CC1(c2ccccc2)CCCCC1=O (stereo not given) the T/C [7] was 93 % of control, the T/C [8] was 95 % of control and the T/C [9] was 93 % of control.

CNC(=S)Nc1c(C)cc(C)cc1C was tested, and the T/C (dose: 25.0 mg/kg/injection, schedule: Q01DX009 (ip), vehicle: saline with Tween-80) was 98 % of control and 108 % of control, the T/C (dose: 50.0 mg/kg/injection, schedule: Q01DX001 (ip), vehicle: saline with Tween-80) was 100 % of control and the T/C (dose: 50.0 mg/kg/injection, schedule: Q01DX009 (ip), vehicle: saline with Tween-80) was 98 % of control and 105 % of control. For the same molecule, the T/C (dose: 100.0 mg/kg/injection, schedule: Q01DX001 (ip), vehicle: saline with Tween-80) was 91 % of control, the T/C (dose: 100.0 mg/kg/injection, schedule: Q01DX009 (ip), vehicle: saline with Tween-80) was 97 % of control and 92 % of control and the T/C [13] was 104 % of control and 106 % of control. For the same molecule, the T/C [10] was 104 % of control, the T/C (dose: 200.0 mg/kg/injection, schedule: Q01DX001 (ip), vehicle: saline with Tween-80) was 96 % of control and the T/C [14] was 96 % of control. The T/C [11] was 94 % of control and the T/C [12] was 95 % of control.

In the case of O=C1CCCc2cc(Cl)c(Cl)cc21, the T/C [7] is reported as 108 % of control, the T/C [8] is reported as 96 % of control and the T/C [9] is reported as 101 % of control.

With O=c1[nH]c2nc(SCc3ccccc3)n(Cc3ccccc3)c2c(=O)n1OS(=O)(=O)c1ccccc1 the T/C [13] was 101 % of control and 108 % of control, the T/C [10] was 96 % of control and the T/C [14] was 94 % of control and 96 % of control. The T/C [11] was 94 % of control, the T/C (dose: 400.0 mg/kg/injection, schedule: Q04DX002 (ip), vehicle: saline with Tween-80) was 94 % of control and 96 % of control and the T/C [12] was 91 % of control.

For N#Cc1nc2ccccc2nc1C#N, the T/C (dose: 12.5 mg/kg/injection, schedule: Q01DX009 (ip), vehicle: Klucel (hydroxypropylcellulose) (HPC)) was 102 % of control, the T/C (dose: 12.5 mg/kg/injection, schedule: Q04DX003 (ip), vehicle: Klucel (hydroxypropylcellulose) (HPC)) was 97 % of control and the T/C (dose: 25.0 mg/kg/injection, schedule: Q01DX009 (ip), vehicle: Klucel (hydroxypropylcellulose) (HPC)) was 102 % of control. The T/C (dose: 25.0 mg/kg/injection, schedule: Q04DX003 (ip), vehicle: Klucel (hydroxypropylcellulose) (HPC)) was 88 % of control.

For O=[N+]([O-])c1ccccc1CC1c2ccccc2-c2ccccc21, the T/C [2] was 96 % of control, the T/C (dose: 200.0 mg/kg/injection, schedule: Q04DX003 (ip), vehicle: saline) was 94 % of control and the T/C (dose: 400.0 mg/kg/injection, schedule: Q04DX003 (ip), vehicle: saline) was 93 % of control.

For O=C1OC(=O)C2C3C=CC3C12 (stereo not given), the T/C [5] was 95 % of control, the T/C [6] was 100 % of control and the T/C (dose: 400.0 mg/kg/injection, schedule: Q04DX002 (ip), vehicle: Klucel (hydroxypropylcellulose) (HPC)) was 92 % of control.
